pIC50: −log10 of the molar value.
Key:
[1] = biological target: PIK3CA (human), P42336 [Antiproliferation of PI3K Mutated BT20 Cells]; experiment: Cell-Based Assay
[2] = biological target: PIK3CA (human) (UniProt P42336); experiment: Inhibition of PIK3CA Kinase Activity
Sequence of PIK3CA (human) (P42336 whole entry, looked up): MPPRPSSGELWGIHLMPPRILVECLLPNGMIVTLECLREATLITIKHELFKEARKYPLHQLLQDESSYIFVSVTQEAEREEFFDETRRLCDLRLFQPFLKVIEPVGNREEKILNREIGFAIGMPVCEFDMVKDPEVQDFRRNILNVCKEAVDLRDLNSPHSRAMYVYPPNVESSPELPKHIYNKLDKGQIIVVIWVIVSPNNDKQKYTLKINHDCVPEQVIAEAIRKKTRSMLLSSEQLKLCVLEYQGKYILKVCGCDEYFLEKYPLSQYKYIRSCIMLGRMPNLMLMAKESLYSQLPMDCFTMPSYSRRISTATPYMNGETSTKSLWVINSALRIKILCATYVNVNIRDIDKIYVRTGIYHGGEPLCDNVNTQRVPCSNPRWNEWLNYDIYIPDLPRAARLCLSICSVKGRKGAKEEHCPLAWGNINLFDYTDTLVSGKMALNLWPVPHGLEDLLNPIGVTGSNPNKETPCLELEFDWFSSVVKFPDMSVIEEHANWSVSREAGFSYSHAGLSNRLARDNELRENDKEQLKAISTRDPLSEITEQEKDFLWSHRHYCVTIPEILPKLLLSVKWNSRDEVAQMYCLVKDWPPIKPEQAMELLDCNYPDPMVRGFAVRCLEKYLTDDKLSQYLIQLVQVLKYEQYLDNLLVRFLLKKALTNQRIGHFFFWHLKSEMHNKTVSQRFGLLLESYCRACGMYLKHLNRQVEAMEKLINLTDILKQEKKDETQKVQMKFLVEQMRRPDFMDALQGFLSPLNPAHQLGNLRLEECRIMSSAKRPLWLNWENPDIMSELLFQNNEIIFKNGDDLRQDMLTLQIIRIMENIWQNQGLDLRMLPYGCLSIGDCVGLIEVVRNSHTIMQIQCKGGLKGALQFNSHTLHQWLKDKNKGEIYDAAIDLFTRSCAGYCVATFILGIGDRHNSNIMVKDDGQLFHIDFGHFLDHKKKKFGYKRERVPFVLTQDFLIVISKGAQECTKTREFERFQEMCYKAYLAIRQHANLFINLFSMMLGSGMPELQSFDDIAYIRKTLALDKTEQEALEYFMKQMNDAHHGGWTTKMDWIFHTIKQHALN

Sequence of PIK3CA (human), P42336 [Antiproliferation of PI3K Mutated BT20 Cells] (P42336 whole entry, looked up, change not shown): as the sequence (P42336 whole entry, looked up) above

Row | Compound | pIC50 [1] | pIC50 [2]
1 | Cc1nc(N)nc2c1cc(-c1cnc3[nH]ccc3c1)c(=O)n2C1CCC1 | 7.92 | 8.70
2 | Cc1nc(N)nc2c1cc(-c1cnn(CC(C)(C)O)c1)c(=O)n2C1CCCC1 | 7.00 | 7.05
3 | CNc1nc(C)c2cc(-c3cccc(O)c3)c(=O)n(C3CCCC3)c2n1 | 8.75 | 9.14
4 | CNc1nc(C)c2cc(/C=C/O)c(=O)n(C3CCCC3)c2n1 | 6.05 | 7.38
5 | CNc1nc(C)c2cc(-c3ccc(OC)nc3)c(=O)[nH]c2n1 | 5.56 | 6.34
6 | Cc1nc(N)nc2c1cc(-c1cccnc1N)c(=O)n2C1CCCC1 | 5.05 | 5.84
7 | CO[C@H]1CC[C@H](n2c(=O)c(-c3ccc(N(C)C)nc3)cc3c(C)nc(N)nc32)CC1 | 8.00 | 8.21
8 | COc1ncc(-c2cc3c(C)nc(N)nc3n([C@H]3CC[C@@H](OCCO)CC3)c2=O)cn1 | 7.82 | 8.27
9 | COc1ccc(Cn2c(=O)c(-c3ccccc3)cc3c(C)nc(N)nc32)cc1 | – | 6.51
10 | COc1ccc(-c2cc3c(C)nc(N)nc3n([C@H]3CC[C@@H](O)CC3)c2=O)cn1 | 7.72 | –
11 | COc1ccc(-c2cc3c(C)nc(N)nc3n(C3CCN(C(C)=O)C3)c2=O)cn1 (stereo not given) | 6.90 | 8.15
12 | COc1ccc(-c2cc3c(C)nc(N)nc3n(N3CCCC3)c2=O)cn1 | – | 7.64
13 | Cc1nc(N)nc2c1cc(-c1ccc3cc[nH]c3n1)c(=O)n2[C@H]1CC[C@@H](O)CC1 | 7.60 | 8.80
14 | COc1ccc(-c2cc3c(C)nc(N)nc3n([C@@H]3CC[C@H](O)C3)c2=O)cn1 | 7.08 | 7.96
15 | Cc1nc(N)nc2c1cc(Br)c(=O)n2CC1CCOC1 (stereo not given) | 5.99 | 7.03
16 | Cc1nc(N)nc2c1cc(-c1cccc(O)c1)c(=O)n2C1CCCC1 | 8.32 | 9.28
17 | Cc1nc(N)nc2c1cc(-c1ccc(C#N)nc1)c(=O)n2[C@H]1CC[C@H](O)CC1 | 5.57 | 6.33
18 | CCNc1nc(C)c2cc(-c3cccc(OC)c3)c(=O)n(C3CCCC3)c2n1 | 5.86 | 6.10
19 | COc1ncc(-c2cc3c(C)nc(N)nc3n([C@H]3CC[C@@H](OCCO)CC3)c2=O)cc1F | – | 8.59
20 | CNc1nc(C)c2cc(C(N)=O)c(=O)n(C3CCCC3)c2n1 | 6.19 | 7.17
21 | CCNc1nc(C)c2cc(-c3cnc(OC)c(F)c3)c(=O)n([C@H]3CC[C@H](O)CC3)c2n1 | 8.29 | 9.10

Row | Compound | pIC50 [1] | pIC50 [2]
22 | COc1ccc(-c2cc3c(C)nc(NCC(F)F)nc3n([C@H]3CC[C@H](O)CC3)c2=O)cn1 | 7.33 | 7.92
23 | COc1ncc(-c2cc3c(C)nc(N)nc3n([C@H]3CC[C@H](OCC(N)=O)CC3)c2=O)cn1 | 7.28 | –
24 | COc1ccc(-c2cc3c(C)nc(N)nc3n([C@@H]3CC[C@@H](O)C3)c2=O)cn1 | 7.06 | 8.34
25 | COc1ccc(-c2cc3c(C)nc(N)nc3n(CCN)c2=O)cn1 | 5.34 | 6.47
26 | COc1ccc(-c2cc3c(C)nc(N)nc3n(CC3(F)CCOCC3)c2=O)cn1 | 6.50 | 7.74
27 | COc1ccc(-c2cc3c(C)nc(N)nc3n(C3CCOCC3)c2=O)cn1 | 7.15 | –
28 | COc1cc(-c2cc3c(C)nc(N)nc3n(C3CCCC3)c2=O)ccc1O | 7.72 | 9.00
29 | Cc1nc(N)nc2c1cc(-c1cn[nH]c1)c(=O)n2C1CCOC1 (stereo not given) | 7.59 | 7.70
30 | Cc1nc(N)nc2c1cc(-c1ccccc1)c(=O)n2Cc1ccc(Cl)cc1 | – | 5.85
31 | CNc1nc(C)c2cc(-c3cccnc3OC)c(=O)n(C3CCCC3)c2n1 | 5.45 | 6.56
32 | Cc1nc(N)nc2c1cc(Br)c(=O)n2C1CCOC1 (stereo not given) | 5.78 | 6.64
33 | COc1ncc(-c2cc3c(C)nc(N)nc3n([C@H]3CC[C@H](OCCO)CC3)c2=O)cn1 | 7.41 | 8.66
34 | COc1ccc(-c2cc3c(C)nc(N)nc3n([C@H]3CC[C@@H](OCC(N)=O)CC3)c2=O)cn1 | 7.69 | –
35 | C#Cc1cc2c(C)nc(N)nc2n(C2CCC2)c1=O | 6.18 | 6.96
36 | COc1ccc(-c2cc3c(C)nc(N)nc3n([C@H]3CC[C@H](O)CC3)c2=O)cn1 | 8.44 | –
37 | COc1ccc(-c2cc3c(C)nc(N)nc3n([C@H]3CC[C@H](OCC(N)=O)CC3)c2=O)cn1 | 7.71 | –
38 | COc1ncc(-c2cc3c(C)nc(N)nc3n([C@H]3CC[C@@H](OCC(N)=O)CC3)c2=O)cn1 | 7.08 | –
39 | COc1ncc(-c2cc3c(C)nc(N)nc3n(C3CCOCC3)c2=O)cc1F | – | 8.84
40 | Cc1nc(N)nc2c1cc(-c1cn[nH]c1)c(=O)n2C1CCCC1 | 8.46 | –
41 | CNc1nc(C)c2cc(-c3cc(CN)ccc3F)c(=O)n(C3CCCC3)c2n1 | 5.00 | –
42 | CCNc1nc(C)c2cc(CCC(=O)N(C)C)c(=O)n(C3CCCC3)c2n1 | 5.00 | –

More lines, now with the values ahead:

Row | pIC50 [1] | pIC50 [2] | Compound
43 | 7.19 | 7.96 | COc1ccc(-c2cc3c(C)nc(N)nc3n(C(C)C)c2=O)cn1
44 | 6.84 | 7.53 | CNc1nc(C)c2cc(-c3ccc(Cl)nc3)c(=O)n(C3CCCC3)c2n1
45 | 7.70 | 7.73 | Cc1nc(N)nc2c1cc(-c1cn[nH]c1)c(=O)n2C1CCOCC1
46 | 5.00 | – | CCNc1nc(C)c2cc(CCC(=O)Nc3ccccn3)c(=O)n(C3CCCC3)c2n1
47 | 7.69 | 8.92 | Cc1nc(N)nc2c1cc(-c1cnc3[nH]ccc3c1)c(=O)n2[C@@H]1CC[C@H](O)C1
48 | – | 7.55 | Cc1nc(N)nc2c1cc(-c1cn[nH]c1)c(=O)n2N1CCCC1
49 | – | 7.25 | COc1ccc(-c2cc3c(C)nc(N)nc3n(C3CC3)c2=O)cn1
50 | 6.50 | 7.41 | CNc1nc(C)c2cc(-c3cnn(C)c3)c(=O)n(C3CCCC3)c2n1
51 | 7.34 | 7.82 | COc1ccc(-c2cc3c(C)nc(N)nc3n(C3CCCC3)c2=O)cc1F
52 | 6.86 | 7.77 | Cc1nc(N)nc2c1cc(-c1cnc3[nH]ccc3c1)c(=O)n2C1CC1
53 | 7.82 | 8.43 | Cc1nc(N)nc2c1cc(-c1cnc3[nH]ccc3c1)c(=O)n2C1CCOCC1
54 | 7.38 | 8.09 | Cc1nc(N)nc2c1cc(-c1cnc3ccccc3c1)c(=O)n2[C@H]1CC[C@H](O)CC1
55 | 7.30 | 8.89 | CCn1nccc1NC(=O)c1cc2c(C)nc(N)nc2n([C@H]2CC[C@H](O)CC2)c1=O
56 | 5.56 | 8.40 | CCNc1nc(C)c2cc(CCCO)c(=O)n(C3CCCC3)c2n1
57 | 7.14 | 8.30 | CNc1nc(C)c2cc(C(=O)Nc3ccon3)c(=O)n(C3CCCC3)c2n1
58 | 6.49 | – | Cc1nc(N)nc2c1cc(-c1cnc3ccccc3c1)c(=O)n2CC(C)(C)O
59 | – | 5.31 | Cc1nc(N)nc2c1cc(-c1ccncc1)c(=O)n2Cc1ccc(Cl)cc1
60 | – | 7.11 | Cc1nc(N)nc2c1cc(-c1cn[nH]c1)c(=O)n2C1CC1
61 | 7.38 | 8.05 | CNc1nc(C)c2cc(-c3ccc(OC)nc3)c(=O)n(CCC3CC3)c2n1
62 | 5.93 | – | Cc1nc(NCC(C)(C)O)nc2c1cc(-c1cccc(O)c1)c(=O)n2C1CCCC1
63 | – | 5.92 | CCn1cc(CNC(=O)c2cc3c(C)nc(NC)nc3n(C3CCCC3)c2=O)cn1
64 | – | 8.41 | CCn1nccc1NC(=O)c1cc2c(C)nc(N)nc2n(C(C)C)c1=O
65 | 5.00 | – | CCNc1nc(C)c2cc(CCC(=O)N(CC)CC)c(=O)n(C3CCCC3)c2n1

Reference: the Kinase Knowledgebase extract (Sharma et al. 2016)
